According to EP1203771A1, “REMEDIES OR PREVENTIVES FOR FREQUENT URINATION OR URINARY INCONTINENCE” (TORAY INDUSTRIES, INC., priority 1999, dated 2001):
Structures can show the parent of a compound that is named as a salt.

Tested on: Rhythmic Bladder Contraction of Rats
Assay: Effect on rhythmic bladder contraction of rats (urethane-anesthetized, saline infusion into bladder, intravesical pressure)
Format: in vivo
Settings: anesthetized female SD rats
Protocol: Effect on Rhythmic Bladder Contraction of Rats
Female SD rats were anesthetized with an intraperitoneal injection of urethane (1.0 g/kg). A polyethylene tube was inserted from urethral opening to the bladder and the tube was fixed by ligating. Physiological saline was appropriately infused via the tube (rate of infusion: about 0.2 ml/min; maximum dose: about 1.5 ml/rat) to induce rhythmic contraction of bladder. The rhythmic contraction of bladder was monitored by measuring the intravesical pressure through the polyethylene tube inserted into the bladder. After confirming that stable rhythmic contraction occurred at least 10 times, each test compound was intravenously administered at a doseof 1 ml/kg. If the intravesical pressure became, within 10 minutes from the administration of the test compound, not more than 50% of the intravesical pressure at the time point immediately after the administration of the test compound, it was judged that […], and the time period until the intravesical pressure again became not less than 50% was defined as the rhythmic bladder contraction-inhibiting time. As the solvent for administration of the test compounds, 5% xylitol was used for test Compounds 1, 2, 3, 4, 5, 11, 12, 21, 23 and 24; physiological saline was used for test Compounds 6, 9, 10, 13, 14, 15, 16, 17, 18, 19, 20 and 22; 10% ethanol solution was used for test Compound 7; and 10% DMSO solution was used for test Compound 8. The solvents 5% xylitol solution, 10% ethanol solution and 10% DMSO solution, each of which is said to somewhat influence on the rhythmic bladder contraction-inhibiting time, were also tested at the dose of 1 ml/kg. […]

[1] = 30 mg/kg intravenously, solvent 5% xylitol
[2] = 10 mg/kg intravenously, solvent 5% xylitol
[3] = 1 mg/kg intravenously, solvent physiological saline
[4] = 3 mg/kg intravenously, solvent physiological saline
[5] = 10 mg/kg intravenously, solvent physiological saline

`O=C1Nc2c3c(nc4cccc1c24)[C@@H]1Oc2c(O)ccc4c2[C@@]12CCN(CC1CC1)[C@H](C4)[C@]2(O)C3` [Compound 1, 17-cyclopropylmethyl-6,7-dehydro-4,5α-epoxy-3,14β-dihydroxy-6,7,2',3'-[4',5'-[imino(oxomethano)]quinolino]morphinan hydrochloric acid salt] was tested, and the “Mean Rhythmic Bladder Contraction-inhibiting Time” value [1] was 6.2 min.
`CN1CC[C@]23c4c5ccc(O)c4O[C@H]2c2nc4cccc(Cl)c4cc2C[C@@]3(O)[C@H]1C5` [Compound 12, 17-methyl-6,7-dehydro-4,5α-epoxy-3,14β-dihydroxy-6,7,2',3'-(5'-chloroquinolino)morphinan tartaric acid salt] was tested, and the “Mean Rhythmic Bladder Contraction-inhibiting Time” value (0.3 mg/kg intravenously, solvent 5% xylitol) was 14.6 min.
`CN1CC[C@]23c4c5ccc(O)c4O[C@H]2c2nc4ccc(Cl)cc4cc2C[C@@]3(O)[C@H]1C5` [Compound 11, 17-methyl-6,7-dehydro-4,5α-epoxy-3,14β-dihydroxy-6,7,2',3'-(6'-chloroquinolino)morphinan methanesulfonic acid salt] was tested, and the “Mean Rhythmic Bladder Contraction-inhibiting Time” value [2] was 12.4 min.
With `Cc1cccc2cc3c(nc12)[C@@H]1Oc2c(O)ccc4c2[C@@]12CCN(C)[C@H](C4)[C@]2(O)C3` [Compound 13, 17-methyl-6,7-dehydro-4,5α-epoxy-3,14β-dihydroxy-6,7,2',3'-(8'-methylquinolino)morphinan methanesulfonic acid salt] the “Mean Rhythmic Bladder Contraction-inhibiting Time” value [3] was 6.5 min.
In the case of `CC(=O)Oc1ccc2c3c1O[C@H]1c4nc5ccccc5cc4C[C@@]4(OC(C)=O)[C@@H](C2)N(C)CC[C@]314` [Compound 16, 17-methyl-6,7-dehydro-4,5α-epoxy-3,14β-diacetoxy-6,7,2',3'-quinolinomorphinan tartaric acid salt], the “Mean Rhythmic Bladder Contraction-inhibiting Time” value (0.3 mg/kg intravenously, solvent physiological saline) is reported as 15.0 min.
In the case of `COc1ccc2c3c1O[C@H]1c4nc5ccccc5cc4C[C@@]4(O)[C@@H](C2)N(C)CC[C@]314` [Compound 19, 17-methyl-6,7-dehydro-4,5α-epoxy-3-methoxy-14β-hydroxy-6,7,2',3'-quinolinomorphinan tartaric acid salt], the “Mean Rhythmic Bladder Contraction-inhibiting Time” value [3] is reported as 7.7 min.
`CC(=O)O[C@@]12Cc3cc4ccccc4nc3[C@@H]3Oc4c(O)ccc5c4[C@@]31CCN(C)[C@@H]2C5` [Compound 17, 17-methyl-6,7-dehydro-4,5α-epoxy-3-hydroxy-14β-acetoxy-6,7,2',3'-quinolinomorphinan tartaric acid salt] was tested, and the “Mean Rhythmic Bladder Contraction-inhibiting Time” value [3] was 7.4 min.
With `CN1CC[C@]23c4c5ccc(O)c4O[C@H]2c2nc4ccccc4cc2C[C@@]3(O)[C@H]1C5` [Compound 6, 17-methyl-6,7-dehydro-4,5α-epoxy-3,14β-dihydroxy-6,7,2',3'-quinolinomorphinane methanesulfonic acid salt] the “Mean Rhythmic Bladder Contraction-inhibiting Time” value [4] was 24.1 min.
For `Oc1ccc2c3c1O[C@H]1c4nc5ccccc5cc4C[C@@]4(O)[C@@H](C2)N(CC2CC2)CC[C@]314` [Compound 21, 17-cyclopropylmethyl-6,7-dehydro-4,5α-epoxy-3,14β-dihydroxy-6,7,2',3'-quinolinomorphinan methanesulfonic acid salt], the “Mean Rhythmic Bladder Contraction-inhibiting Time” value [2] was 10.0 min.
In the case of `CO[C@@]12Cc3cc4ccccc4nc3[C@@H]3Oc4c(O)ccc5c4[C@@]31CCN(C)[C@@H]2C5` [Compound 9, 17-methyl-6,7-dehydro-4,5 α-epoxy-3-hydroxy-14 β -methoxy-6,7,2',3'-quinolinomorphinan methanesulfonic acid salt], the “Mean Rhythmic Bladder Contraction-inhibiting Time” value [3] is reported as 7.3 min.
With `Oc1ccc2c3c1O[C@H]1c4nc5ccccc5cc4C[C@@]4(O)[C@@H](C2)N(CCc2ccccc2)CC[C@]314` [Compound 7, 17-phenethyl-6,7-dehydro-4,5 α-epoxy-3,14β-dihydroxy-6,7,2',3'-quinolinomorphinan methanesulfonic acid salt] the “Mean Rhythmic Bladder Contraction-inhibiting Time” value (5 mg/kg intravenously, solvent 10% ethanol solution) was 17.1 min.
For `CN1CC[C@]23c4c5ccc(O)c4O[C@H]2c2nc4c(Cl)cccc4cc2C[C@@]3(O)[C@H]1C5` [Compound 10, 17-methyl-6,7-dehydro-4,5α-epoxy-3,14β-dihydroxy-6,7,2',3'-(8'-chloroquinolino)morphinan methanesulfonic acid salt], the “Mean Rhythmic Bladder Contraction-inhibiting Time” value [5] was 7.4 min.
In the case of `Oc1ccc2c3c1O[C@H]1c4nc5ccccc5cc4C[C@@]4(O)[C@@H](C2)N(CCc2cccs2)CC[C@]314` [Compound 8, 17-(2-thienyl)ethyl-6,7-dehydro-4,5α-epoxy-3,14β-dihydroxy-6,7,2',3'-quinolinomorphinan methanesulfonic acid salt], the “Mean Rhythmic Bladder Contraction-inhibiting Time” value (10 mg/kg intravenously, solvent 10% DMSO solution) is reported as 19.5 min.
`Oc1ccc2c3c1O[C@H]1c4nc5ccccc5cc4C[C@@]4(O)[C@@H](C2)N(CCc2ccc(F)cc2)CC[C@]314` [Compound 24, 17-(4-fluorophenyl)ethyl-6,7-dehydro-4,5α-epoxy-3,14β-dihydroxy-6,7,2',3'-quinolinomorphinan methanesulfonic acid salt] was tested, and the “Mean Rhythmic Bladder Contraction-inhibiting Time” value [2] was 2.3 min.
In the case of `C=CCN1CC[C@]23c4c5ccc(O)c4O[C@H]2c2nc4ccccc4cc2C[C@@]3(O)[C@H]1C5` [Compound 22, 17-allyl-6,7-dehydro-4,5α-epoxy-3,14β-dihydroxy-6,7,2',3'-quinolinomorphinan methanesulfonic acid salt], the “Mean Rhythmic Bladder Contraction-inhibiting Time” value [5] is reported as 1.4 min.
`CC(=O)Oc1ccc2c3c1O[C@H]1c4nc5ccccc5cc4C[C@@]4(O)[C@@H](C2)N(C)CC[C@]314` [Compound 18, 17-methyl-6,7-dehydro-4,5α-epoxy-3-acetoxy-14β-hydroxy-6,7,2',3'-quinolinomorphinane tartaric acid salt] was tested, and the “Mean Rhythmic Bladder Contraction-inhibiting Time” value [3] was 6.6 min.
With `Cc1c2c(nc3ccccc13)[C@@H]1Oc3c(O)ccc4c3[C@@]13CCN(C)[C@H](C4)[C@]3(O)C2` [Compound 4, 17-methyl-6,7-dehydro-4,5α-epoxy-3,14β-dihydroxy-6,7,2',3'-(4'-methylquinolino)morphinan methanesulfonic acid salt] the “Mean Rhythmic Bladder Contraction-inhibiting Time” value [2] was 13.9 min.
For `CN1CC[C@]23c4c5ccc(O)c4O[C@H]2c2nc4ccccc4c(N)c2C[C@@]3(O)[C@H]1C5` [Compound 2, 17-methyl-6,7-dehydro-4,5α-epoxy-3,14β-dihydroxy-6,7,2',3'-(4'-aminoquinolino)morphinan methanesulfonic acid salt], the “Mean Rhythmic Bladder Contraction-inhibiting Time” value [2] was 4.5 min.
With `Oc1ccc2c3c1O[C@H]1c4nc5c(cc4C[C@@]4(O)[C@@H](C2)N(CC2CC2)CC[C@]314)cc1c2c(cccc25)CC1` [Compound 3, 17-cyclopropylmethyl-6,7-dehydro-4,5α-epoxy-3,14β-dihydroxy-6,7,2',3'-(6',6"-ethano-7',8'-benzoquinolino)morphinan methanesulfonic acid salt] the “Mean Rhythmic Bladder Contraction-inhibiting Time” value (20 mg/kg intravenously, solvent 5% xylitol) was 5.0 min.
For `Cc1ccc2nc3c(cc2c1)C[C@@]1(O)[C@H]2Cc4ccc(O)c5c4[C@@]1(CCN2C)[C@H]3O5` [Compound 14, 17-methyl-6,7-dehydro-4,5α-epoxy-3,14β-dihydroxy-6,7,2',3'-(6'-methylquinolino)morphinan methanesulfonic acid salt], the “Mean Rhythmic Bladder Contraction-inhibiting Time” value [4] was 12.3 min.
With `CN1CC[C@]23c4c5cccc4O[C@H]2c2nc4ccccc4cc2C[C@@]3(O)[C@H]1C5` [Compound 20, 17-methyl-6,7-dehydro-4,5α-epoxy-14β-hydroxy-6,7,2',3'-quinolinomorphinan tartaric acid salt] the “Mean Rhythmic Bladder Contraction-inhibiting Time” value [3] was 11.1 min.
In the case of `Cc1ccc(CCN2CC[C@]34c5c6ccc(O)c5O[C@H]3c3nc5ccccc5cc3C[C@@]4(O)[C@H]2C6)cc1` [Compound 23, 17-(4-methylphenyl)ethyl-6,7-dehydro-4,5α-epoxy-3,14β-dihydroxy-6,7,2',3'-quinolinomorphinan methanesulfonic acid salt], the “Mean Rhythmic Bladder Contraction-inhibiting Time” value [2] is reported as 9.2 min.
`CN1CC[C@]23c4c5ccc(O)c4O[C@H]2c2nc4c(F)cccc4cc2C[C@@]3(O)[C@H]1C5` [Compound 15, 17-methyl-6,7-dehydro-4,5α-epoxy-3,14β-dihydroxy-6,7,2',3'-(8'-fluoroquinolino)morphinan tartaric acid salt] was tested, and the “Mean Rhythmic Bladder Contraction-inhibiting Time” value [3] was 10.7 min.
With `CN1CC[C@]23c4c5ccc(O)c4O[C@H]2c2nc4ccccc4c(O)c2C[C@@]3(O)[C@H]1C5` [Compound 5, 17-methyl-6,7-dehydro-4,5α-epoxy-3,14β-dihydroxy-6,7,2',3'-(4'-hydroxyquinolino)morphinan methanesulfonic acid salt] the “Mean Rhythmic Bladder Contraction-inhibiting Time” value [1] was 5.7 min.
